According to patent publication US4694069A, “Kibdelosporangium aridum SK&F-AAD-609” (SmithKline Beckman Corporation, priority 1985, dated 1987):
≈ marks a conversion by molar mass, not a printed value. Like-named read-outs stand apart in the source and are kept apart here. Each block holds one compound with its values, some of them ahead of it. Bridge positions count the residues as written; N and C are the ends. Square brackets hold non-standard residues; d marks the D form. Peptide text beside a SMILES is read from it. * marks the point of attachment. Ileψ(thiazoline)Cys = CC[C@H](C)[C@H](N)C1=N[C@H](C(=O)*)CS1; dOrn = NCCC[C@@H](N)C(=O)O

Legend:
[1] = tested on: S. faecalis 34358; assay: In vitro MIC, standard microtiter assay; format: cell-based, Streptococcus faecalis
Source text: (§1) In vitro minimum inhibitory concentrations (MIC) of the AAD-609 complex and of Factors A, B, CC2 and D, using standard microtiter assay procedures, against a number of microorganisms are reported in Table A, which follows.

[2] = tested on: S. epidermidis 2265; assay: In vitro MIC, standard microtiter assay; format: cell-based
Source text: as §1

[3] = tested on: Streptococcus faecalis 657; assay: In vitro MIC, standard microtiter assay; format: cell-based
Source text: as §1

[4] = tested on: Salmonella gallinarum BC-595; assay: In vitro MIC, standard microtiter assay; format: cell-based
Source text: as §1

[5] = tested on: Staphylococcus aureus HH127; assay: In vitro MIC, standard microtiter assay; format: cell-based
Source text: as §1

[6] = tested on: Escherichia coli 12140; assay: In vitro MIC, standard microtiter assay; format: cell-based
Source text: as §1

[7] = tested on: Clostridium difficile; assay: In vitro MIC, standard microtiter assay; format: cell-based
Source text: as §1

[8] = tested on: S. epidermidis 2683; assay: In vitro MIC, standard microtiter assay; format: cell-based
Source text: as §1

[9] = tested on: S. epidermidis 2479; assay: In vitro MIC, standard microtiter assay; format: cell-based
Source text: as §1

[10] = tested on: S. epidermidis 651 (methicillin resistant strain); assay: In vitro MIC, standard microtiter assay; format: cell-based
Source text: as §1

[11] = pKa by potentiometric titration; conditions: 30:70 acetonitrile:water, apparent values
[12] = tested on: S. aureus 2620 (methicillin resistant strain); assay: MIC; format: cell-based
Source text: as §1

[13] = tested on: S. aureus 209P; assay: In vitro MIC, standard microtiter assay; format: cell-based, Staphylococcus aureus
Source text: as §1

[14] = tested on: S. aureus 674; assay: In vitro MIC, standard microtiter assay; format: cell-based, Staphylococcus aureus
Source text: as §1

[15] = tested on: S. aureus 910 (methicillin resistant strain); assay: In vitro MIC, standard microtiter assay; format: cell-based, Staphylococcus aureus
Source text: as §1

[16] = tested on: S. aureus 675; assay: In vitro MIC, standard microtiter assay; format: cell-based, Staphylococcus aureus
Source text: as §1

[17] = tested on: S. aureus 2620 (methicillin resistant strain); assay: Mouse protection test; format: in vivo
Source text: (§2) in mouse protection tests^1
(§3) ^1 Mice dosed 1 and 5 H post infection s.c.; ED50, mg/kg.

[18] = tested on: S. faecalis 34358; assay: Mouse protection test; format: in vivo
Source text: as §2, §3

[19] = tested on: S. aureus HH127; assay: Mouse protection test; format: in vivo
Source text: as §2, §3

[20] = tested on: S. epidermidis 2479; assay: Mouse protection test; format: in vivo
Source text: as §2, §3

[21] = tested on: S. epidermidis 651 (methicillin resistant strain); assay: Mouse protection test; format: in vivo
Source text: as §2, §3

[22] = tested on: SK&F-AAD-609; assay: Susceptibility of SK&F-AAD-609 to antibiotics (diffusion method, BBL susceptibility disks); format: cell-based, Kibdelosporangium aridum subsp. largum; conditions: disk 30 μg; 28° C., one week
Protocol: Susceptibility of SK&F-AAD-609 to antibiotics was examined by placing BBL susceptibility disks on nutrient agar plates seeded with SK&F-ADD-609 as an agar overlay. Plates were placed at 4° C. for one hour to permit diffusion of the anitbiotics and, subsequently, incubated at 28° C. Diameters of the zones of inhibition were measured after incubation for one week.
Susceptibility to Antibiotics. […] Chlortetracycline (5 μg) produced 17-18 mm zones of inhibition; tetracycline (5 μg) 9-12 mm zones; rifampin (5 μg) 10-12 mm zones; novobiocin (5 μg) 30-35 mm zones. All zones of inhibition contained at least a few resistant colonies.

[23] = comparators, source not given; cited from earlier work
[24] = Pharmacokinetics in mice
[25] = mouse, in vivo
[26] = 30:70 acetonitrile:water
[27] = tested on: pigs; conditions: pig, in vivo; cited from earlier work
[28] = Table A, methicillin resistant strain
[29] = Table B, methicillin resistant strain
[30] = AAD-216A averaged previous results
[31] = mice dosed 1 and 5 h post infection s.c., methicillin resistant strain
[32] = mice dosed 1 and 5 h post infection s.c.

Compound: CNC1C(=O)NC2C(=O)NC(C(=O)NC3C(=O)NC4C(=O)NC(C(=O)NC(C(=O)O)c5cc(O)cc(OC6OC(CO)C(O)C(O)C6O)c5-c5cc4ccc5O)C(O)c4cc(Cl)c(c(Cl)c4)Oc4cc3cc(c4OC3OC(CO)C(O)C(O)C3NC(=O)CCCCCCCCC(C)C)Oc3ccc(cc3Cl)C2O)c2cc(cc(O)c2Cl)Oc2cc1ccc2O (stereo not shown) [AAD-609 C]
MIC ([1]; Table A): 0.2 µg/mL (≈ 0.111 µM)
MIC ([1]; Table B): 0.2 µg/mL (≈ 0.111 µM)
MIC ([2]; Table A): 25 µg/mL (≈ 13.9 µM)
MIC ([3]; Table A): 0.2 µg/mL (≈ 0.111 µM)
MIC ([4]; Table A): > 100 µg/mL
MIC ([5]; Table A): 1.6 µg/mL (≈ 0.887 µM)
MIC ([5]; Table B): 1.6 µg/mL (≈ 0.887 µM)
MIC ([6]; Table A): > 100 µg/mL
MIC ([7]; Table A): 1 µg/mL (≈ 0.554 µM)
MIC ([8]; Table A): 25 µg/mL (≈ 13.9 µM)
MIC ([9]; Table A): 12.5 µg/mL (≈ 6.93 µM)
MIC ([9]; Table B): 12.5 µg/mL (≈ 6.93 µM)
MIC [10, 28]: 25 µg/mL (≈ 13.9 µM)
MIC [10, 29]: 25 µg/mL (≈ 13.9 µM)
pKa (A) carboxyl on aglycone [11, 30]: 3.6
pKa (C) amino group on aglycone [11, 30]: 7.2
pKa (D) phenolic OH ([11]; first phenolic OH, AAD-216A averaged previous results): 8.4
pKa (D) phenolic OH ([11]; fourth phenolic OH): 11.6
pKa (D) phenolic OH ([11]; second phenolic OH, AAD-216A averaged previous results): 9.9
pKa (D) phenolic OH ([11]; third phenolic OH, AAD-216A averaged previous results): 10.6
MIC [12, 29]: 4 µg/mL (≈ 2.22 µM)
MIC ([13]; Table A): 0.8 µg/mL (≈ 0.444 µM)
MIC ([14]; Table A): 1.6 µg/mL (≈ 0.887 µM)
MIC [15, 28]: 1.6 µg/mL (≈ 0.887 µM)
MIC ([16]; Table A): 6.3 µg/mL (≈ 3.49 µM)
ED50 [17, 31]: 8.4 mg/kg
ED50 [18, 32]: 50 mg/kg
ED50 [19, 32]: 8.5 mg/kg
ED50 [20, 32]: 22 mg/kg
ED50 [21, 31]: 50 mg/kg

Compound: CN[C@H](CC(C)C)C(=O)N[C@H]1C(=O)N[C@@H](CC(N)=O)C(=O)N[C@H]2C(=O)N[C@H]3C(=O)N[C@H](C(=O)N[C@H](C(=O)O)c4cc(O)cc(O)c4-c4cc3ccc4O)[C@H](O)c3ccc(c(Cl)c3)Oc3cc2cc(c3O[C@@H]2O[C@H](CO)[C@@H](O)[C@H](O)[C@H]2O[C@H]2C[C@](C)(N)[C@H](O)[C@H](C)O2)Oc2ccc(cc2Cl)[C@H]1O [Vancomycin, vancomycin]
MIC ([1]; Enterococcus faecalis, 34358): 3.1 µg/mL (≈ 2.14 µM)
MIC ([1]; Table B): 3.1 µg/mL (≈ 2.14 µM)
MIC ([2]; Staphylococcus epidermidis, 2265): 1.6 µg/mL (≈ 1.1 µM)
MIC ([3]; Enterococcus faecalis, 657): 3.1 µg/mL (≈ 2.14 µM)
MIC ([4]; Salmonella enterica, GALLINARUM): 100 µg/mL (≈ 69 µM)
MIC ([5]; Staphylococcus aureus, HH127): 1.6 µg/mL (≈ 1.1 µM)
MIC ([5]; Table B): 1.6 µg/mL (≈ 1.1 µM)
MIC ([6]; Escherichia coli, 12140): > 100 µg/mL
MIC ([7]; Clostridioides difficile): 2 µg/mL (≈ 1.38 µM)
MIC ([8]; Staphylococcus epidermidis, 2683): 3.1 µg/mL (≈ 2.14 µM)
MIC ([9]; Staphylococcus epidermidis, 2479): 3.1 µg/mL (≈ 2.14 µM)
MIC ([9]; Table B): 3.1 µg/mL (≈ 2.14 µM)
MIC ([10]; Staphylococcus epidermidis): 3.1 µg/mL (≈ 2.14 µM)
MIC [10, 29]: 3.1 µg/mL (≈ 2.14 µM)
Susceptibility (diffusion method) [22]: resistant
MIC ([12]; Staphylococcus aureus): 2 µg/mL (≈ 1.38 µM)
MIC ([13]; Staphylococcus aureus, 209P): 0.8 µg/mL (≈ 0.552 µM)
MIC ([14]; Staphylococcus aureus, 674): 1.6 µg/mL (≈ 1.1 µM)
MIC ([15]; Staphylococcus aureus): 1.6 µg/mL (≈ 1.1 µM)
MIC ([16]; Staphylococcus aureus, 675): 3.1 µg/mL (≈ 2.14 µM)
ED50 ([17]; Staphylococcus aureus, sc): 6.7 mg/kg
ED50 ([18]; Enterococcus faecalis, 34358, sc): 12.5 mg/kg
ED50 ([19]; Staphylococcus aureus, HH127, sc): 1.4 mg/kg
ED50 ([20]; Staphylococcus epidermidis, 2479, sc): 4.1 mg/kg
ED50 ([21]; Staphylococcus epidermidis, sc): 4.8 mg/kg
Isoelectric point [23]: 8.2
Elimination half-life ([24]; mice): 0.333 h
Cmax ([24]; mouse, serum): 30000 ng/mL

MIC ([1]; Enterococcus faecalis, 34358, Table A, read-out: MIC): 0.4 µg/mL (≈ 0.225 µM)
MIC ([1]; Table B): 0.4 µg/mL (≈ 0.225 µM)
MIC ([2]; Staphylococcus epidermidis, 2265, Table A, read-out: MIC): 25 µg/mL (≈ 14.1 µM)
MIC ([3]; Enterococcus faecalis, 657, Table A, read-out: MIC): 0.4 µg/mL (≈ 0.225 µM)
MIC ([4]; Salmonella enterica, GALLINARUM, Table A, read-out: MIC): > 100 µg/mL
MIC ([5]; Staphylococcus aureus, HH127, Table A, read-out: MIC): 1.6 µg/mL (≈ 0.901 µM)
MIC ([5]; Table B): 1.6 µg/mL (≈ 0.901 µM)
MIC ([6]; Escherichia coli, 12140, Table A, read-out: MIC): > 100 µg/mL
MIC ([7]; Clostridioides difficile, Table A, read-out: MIC): 0.5 µg/mL (≈ 0.282 µM)
MIC ([8]; Staphylococcus epidermidis, 2683, Table A, read-out: MIC): 24 µg/mL (≈ 13.5 µM)
MIC ([9]; Staphylococcus epidermidis, 2479, Table A, read-out: MIC): 12.5 µg/mL (≈ 7.04 µM)
MIC ([9]; Table B): 12.5 µg/mL (≈ 7.04 µM)
MIC ([10]; Staphylococcus epidermidis, Table A, methicillin resistant strain, read-out: MIC): 50 µg/mL (≈ 28.2 µM)
MIC [10, 29]: 50 µg/mL (≈ 28.2 µM)
MIC ([12]; Staphylococcus aureus, Table B, methicillin resistant strain, read-out: MIC): 2 µg/mL (≈ 1.13 µM)
MIC ([13]; Staphylococcus aureus, 209P, Table A, read-out: MIC): 0.4 µg/mL (≈ 0.225 µM)
MIC ([14]; Staphylococcus aureus, 674, Table A, read-out: MIC): 0.8 µg/mL (≈ 0.451 µM)
MIC ([15]; Staphylococcus aureus, Table A, methicillin resistant strain, read-out: MIC): 1.6 µg/mL (≈ 0.901 µM)
MIC ([16]; Staphylococcus aureus, 675, Table A, read-out: MIC): 6.3 µg/mL (≈ 3.55 µM)
Elimination half-life [25]: 1.93 h
Maximum serum concentration [25]: 90 µg/mL
pKa (A) carboxyl on aglycone [26]: 3.4
pKa (C) amino group on aglycone [26]: 7.1
Compound: CCCCCCCCCC(=O)NC1C(Oc2c3cc4cc2Oc2c(Cl)cc(cc2Cl)C(O)C2NC(=O)C(NC(=O)C4NC(=O)C4NC(=O)C(NC(=O)C(NC)c5ccc(O)c(c5)Oc5cc(O)c(Cl)c4c5)C(O)c4ccc(c(Cl)c4)O3)c3ccc(O)c(c3)-c3c(OC4OC(CO)C(O)C(O)C4O)cc(O)cc3C(C(=O)O)NC2=O)OC(CO)C(O)C1O (stereo not shown) [AAD-609 A]

Compound: CC[C@H](C)[C@H](N)C1=N[C@H](C(=O)N[C@@H](CC(C)C)C(=O)N[C@H](CCC(=O)O)C(=O)N[C@H](C(=O)N[C@H]2CCCCNC(=O)[C@H](CC(N)=O)NC(=O)[C@@H](CC(=O)O)NC(=O)[C@H](Cc3cnc[nH]3)NC(=O)[C@@H](Cc3ccccc3)NC(=O)[C@H]([C@@H](C)CC)NC(=O)[C@@H](CCCN)NC2=O)[C@@H](C)CC)CS1 [Bacitracin, bacitracin] ({Ileψ(thiazoline)Cys}-L[dE]IK[dOrn]I[dF]H[dD]N; lactam 4-C)
Growth promotion in pigs (in words) [27]: known growth promoter in pigs
